Measured values from patent US9908850B2, “Salt forms of [R—(R*,R*)]-2-(4-fluorophenyl)-β,δ-dihydroxy-5-(1-methylethyl)3-phenyl-4-[(phenylamino)carbonyl]-1H-pyrrole-1-hepatonic acid” (Pfizer Inc., priority 2004, dated 2018).

Assay: hygroscopicity of the salt forms
Format: physicochemical
Settings: solid salt; considered to be non-hygroscopic

Row | Compound | hygroscopicity
1 | CC(C)c1c(C(=O)Nc2ccccc2)c(-c2ccccc2)c(-c2ccc(F)cc2)n1CC[C@@H](O)C[C@@H](O)CC(=O)O.c1ccc(CCNCc2ccccc2)cc1 (relative stereo) [benethamine, [R—(R*,R*)]-2-(4-Fluorophenyl)-β,δ-dihydroxy-5-(1-methylethyl)-3-phenyl-4-[(phenylamino)carbonyl]-1H-pyrrole-1-heptanoic acid, N-benzyl-2-phenylethylamine] | non-hygroscopic
2 | CC(C)c1c(C(=O)Nc2ccccc2)c(-c2ccccc2)c(-c2ccc(F)cc2)n1CC[C@@H](O)C[C@@H](O)CC(=O)O.c1ccc(CNCCNCc2ccccc2)cc1 (relative stereo) [benzathine, [R—(R*,R*)]-2-(4-Fluorophenyl)-β,δ-dihydroxy-5-(1-methylethyl)-3-phenyl-4-[(phenylamino)carbonyl]-1H-pyrrole-1-heptanoic acid,N,N^1-bis(phenylmethyl)-1,2-ethanediamine] | non-hygroscopic
3 | [R—(R*,R*)]-2-(4-Fluorophenyl)-β,δ-dihydroxy-5-(1-methylethyl)-3-phenyl-4-[(phenylamino)carbonyl]-1H-pyrrole-1-heptanoic acid, tertiary-butylamine [erbumine] | non-hygroscopic
4 | [R—(R*,R*)]-2-(4-Fluorophenyl)-β,δ-dihydroxy-5-(1-methylethyl)-3-phenyl-4-[(phenylamino)carbonyl]-1H-pyrrole-1-heptanoic acid, tetrahydro-2H-1,4-oxazine [morpholine] | non-hygroscopic
5 | [R—(R*,R*)]-2-(4-Fluorophenyl)-β,δ-dihydroxy-5-(1-methylethyl)-3-phenyl-4-[(phenylamino)carbonyl]-1H-pyrrole-1-heptanoic acid,N-(phenylmethyl)benzenemethanamine [dibenzylamine] | non-hygroscopic
6 | [R—(R*,R*)]-2-(4-Fluorophenyl)-β,δ-dihydroxy-5-(1-methylethyl)-3-phenyl-4-[(phenylamino)carbonyl]-1H-pyrrole-1-heptanoic acid,N-ethylethanamine [diethylamine] | non-hygroscopic
